Laboratory results: EP0602814A1, “Crystal forms of optically active isoindolines and their use” (TAKEDA CHEMICAL INDUSTRIES, LTD., priority 1992, dated 1994)

Legend:
benzodiazepine receptor = experiment: [3H]diazepam binding to benzodiazepine receptor (crude mitochondrial fraction of cerebral cortex); design: species or system male SD rats; settings: inhibition of ³H-diazepam (2 nM) binding by 50%, 4 °C, 20 minutes, Tris-HCl pH 7.4; read-out: IC₅₀
Experimental: The affinity of the compound of the present invention to a benzodiazepine receptor was investigated using radioactive [³H] diazepam.
Capability of specific binding to a benzodiazepin receptor was determined in accordance with the method described in the literature [Nature, 266, 732 (1977); European J. Pharmacol., 48, 263 (1978)]. Specifically, a crude mitochondrial fraction obtained from the cerebral cortex of male SD rats at 9 to 10 weeks of age was suspended in 50 mM Tris-HCL buffer (pH 7.4), and incubated, together with several concentrations of the subject drug and ³H-diazepam (final concentration 2 nM), at 4 °C for 20 minutes. This suspension was then filtered through a Whatman GF/B glass fiber filter, and the ³H-diazepam radioactivity on the filter was measured using a liquid scintillation counter. The concentration of the subject drug at which ³H-diazepam binding was inhibited by 50% was taken as the IC₅₀ value.

Male rats (SD/JCL) = experiment: Antianxiety action (Vogel method, anticonflict water drinking test); type: in vivo; settings: for Minimum Effective Dose (MED): rats; for antianxiety action stronger than that of the racemic compounds: ratio of MED of the racemic compound to MED of the optically active compound (Table 2)

Row | Structure (SMILES) | IC50 (benzodiazepine receptor) [nM] | Minimum Effective Dose (MED) (Male rats (SD/JCL); p.o., 30 minutes after dosing, water drinking frequency in 3 minutes) | antianxiety action stronger than that of the racemic compounds (Male rats (SD/JCL)) [times] | Minimum Effective Dose (MED) (Male rats (SD/JCL); i.p., Vogel method)
1 | O=C(CC1c2ccccc2C(=O)N1c1ccc2ccc(Cl)nc2n1)N1CCC2(CC1)OCCO2 (racemic) [Racemic compound of Example 1, 2-(7-chloro-1,8-naphthylidin-2-yl)-3-[(1,4-dioxa-8-azaspiro[4.5]dec-8-yl)carbonylmethyl]isoindolin-1-one, reference compound] | 0.38 | 10 mg/kg, p.o. |  | 
2 | O=C(C[C@H]1c2ccccc2C(=O)N1c1ccc2ccc(Cl)nc2n1)N1CCC2(CC1)OCCO2 [Example 1, (S)-(+)-2-(7-chloro-1,8-naphthylidin-2-yl)-3-[(1,4-dioxa-8-azaspiro[4.5]dec-8-yl)carbonylmethyl]isoindolin-1-one] | 0.32 |  | 8 | 
3 | O=C(CC1c2ccccc2C(=O)N1c1ccc2ccc(Cl)nc2n1)N1CCC(O)CC1 (racemic) [Racemic compound of Example 3, 2-(7-chloro-1,8-naphthylidin-2-yl)-3-[(4-hydroxypiperidin-1-yl)carbonylmethyl]isoindolin-1-one, reference compound] | 2.14 |  |  | 20 mg/kg, i.p.
4 | O=C(C[C@H]1c2ccccc2C(=O)N1c1ccc2ccc(Cl)nc2n1)N1CCC(O)CC1 [Example 3, (S)-(+)-2-(7-chloro-1,8-naphthylidin-2-yl)-3-[(4-hydroxypiperidin-1-yl)carbonylmethyl]isoindolin-1-one] | 0.92 |  | 4 | Compound in Example 3 5.0 mg/kg, i.p.
